Assay results taken from the METLIN SMRT retention time set (Domingo-Almenara et al. 2019).

experiment: gradient 5% acetonitrile 3 min, to 50% in 2 min, to 85% in 15 min, held 3 min, 100 µL/min; settings: column: Zorbax Extend-C18 2.1 x 50 mm; eluents: water / acetonitrile, 0.1% formic acid
In short: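 In both positive and negative ionization mode, a quadrupole time-of-flight mass spectrometer coupled to HPLC analyzed pure standards run in mixtures of ~100 molecules. The Zorbax Extend-C18 column (2.1 × 50 mm, 1.8 μm) was operated at 100 μL/min with water and acetonitrile, each containing 0.1% formic acid. The dead volume was 40 μL and the dwell volume 900 μL. Retention time came from adduct peaks that were computationally picked and individually inspected by hand.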

First: Cn1ncc2c(N3CCN(c4ccccc4F)CC3)ncnc21
Second: Cn1ncc2c(N3CCSCC3)nc(C(=O)Nc3ccccc3)nc21
The RP-LC retention time of the first is higher: 858 s for the first, 819 s for the second.

First: Clc1ccc(-c2nc(-c3ccc4nncn4c3)no2)cc1
Second: Cc1ccc(-c2nnc(C)c(NCc3cccs3)n2)cc1
The RP-LC retention time of the first is higher: 896 s for the first, 700 s for the second.

First: COc1cccc(-c2noc(Cn3ccn(-c4ccccc4OC)c(=O)c3=O)n2)c1
Second: COc1ccc(-c2nnc(Cc3nc(-c4cccc(F)c4)no3)o2)cc1OC
The RP-LC retention time of the first is lower: 810 s for the first, 911 s for the second.

Compared with `Cc1oc(-c2[nH]ncc2C(=O)N2CCCCC2)cc1S(=O)(=O)Nc1cccc(F)c1`, `Cc1cccc(NC(=O)CN2C(=O)CCCc3cc(S(=O)(=O)N4CCCCC4)ccc32)c1` is higher in RP-LC retention time: 710 s for the first, 958 s for the second.

Going from `COc1cccc(NC(=O)NCC(c2cccnc2)c2cn(C)c3ccccc23)c1` (stereo not drawn) to `Cc1cc2nnc(SCC(=O)Nc3nc(-c4ccccc4)cs3)n2c2ccccc12`, the RP-LC retention time rises from 684 s to 964 s.

Going from `Cc1nc(-c2cc(S(=O)(=O)Nc3ccc(F)cc3Cl)c(C)s2)cs1` to `Cc1nc(-c2cc(S(=O)(=O)Nc3ccc(Br)cc3)c(C)s2)cs1`, the RP-LC retention time rises from 1050 s to 1070 s.

Compared with `Cc1cccc2nnc(N3CCN(C(=O)c4ccc(F)cc4)CC3)n12`, `O=C(CN1CCN(Cc2ccc(F)cc2)C1=O)N1CCN(c2ccccc2)CC1` is higher in RP-LC retention time: 648 s for the first, 824 s for the second.

Compared with `CCn1c(C(=O)NCCCN2CCCC2=O)c(N2CCCC2=O)c2cc(F)ccc21`, `CCc1nc(N)n(CC(=O)Nc2cc(F)ccc2C)c(=O)c1C` is lower in RP-LC retention time: 700 s for the first, 620 s for the second.

Going from `CC(=O)N1CCC(c2nc(-c3ccc4c(c3)ncn4CCN3CCCC3)no2)CC1` to `Cn1nc(-c2nc(C3CC3)no2)c2c1CCN(C(=O)c1cccc(C(F)(F)F)c1)C2`, the RP-LC retention time rises from 553 s to 906 s.

Going from `CSc1ccc(CN2CCN(c3cnn4c(C5CC5)nnc4c3)CC2)cc1` to `Cc1cccc(N2CCN(CC(O)COc3ccc(Cl)cc3)CC2)c1` (stereo not drawn), the RP-LC retention time rises from 603 s to 846 s.

Compared with `CCOCCCNC(=O)c1cnn2c(C(F)(F)F)cc(-c3ccccc3)nc12`, `CCCCN1C(=O)C(NC(=O)c2ccccc2OC)(C(F)(F)F)C(C(=O)OC)=C1C` (stereo not drawn) is higher in RP-LC retention time: 1010 s for the first, 1070 s for the second.

First: COc1ccc(NC(=O)c2cc(C)n3nc(-c4ccsc4)cc3n2)cc1
Second: COc1ccc(Cl)cc1NC(=O)c1cc(C)n2nc(C)cc2n1
The RP-LC retention time of the first is lower: 1120 s for the first, 1160 s for the second.

Compared with `CCCCN(C)c1ccc(NC(=O)Cc2cccs2)c(C(=O)O)c1`, `CCOC(=O)Cc1csc(NC(=O)Cc2cc(-c3cc4ccccc4o3)on2)n1` is higher in RP-LC retention time: 759 s for the first, 891 s for the second.

Compared with `Cc1cc(C)cc(NC(=O)NCCc2cn(CC(C)C)c3ncccc23)c1`, `Cc1cc(NC(=O)Cn2c(=O)cc(-c3nc(C(C)C)no3)c3ccccc32)ccc1F` is higher in RP-LC retention time: 905 s for the first, 959 s for the second.

Going from `Cc1ccc(CNC(=O)Cn2ccnc2-c2ccnc(N3CCCC3)c2)cc1` to `Cc1ccc2cc(CCC(=O)N3CCCN(c4ncccn4)CC3)c(=O)[nH]c2c1`, the RP-LC retention time rises from 602 s to 676 s.

First: O=C1CC(c2noc(-c3cc(F)ccc3F)n2)CN1c1ccc(F)cc1 (stereo not drawn)
Second: Cc1ccc(N2CC(c3noc(-c4ccoc4)n3)CC2=O)cc1 (stereo not drawn)
The RP-LC retention time of the first is higher: 944 s for the first, 868 s for the second.

Going from `COc1cc2c(cc1OC)CN(C(=O)C1CC(=O)N(c3n[nH]c4cccc(F)c34)C1)CC2` (stereo not drawn) to `CCCN1C(=O)CN(C2CCCCC2)C(=O)C1c1ccc(OC)c(OC)c1` (stereo not drawn), the RP-LC retention time rises from 689 s to 777 s.

Going from `CCOc1ccc(N2C=C(C(=O)OC)S(=O)(=O)c3ccc(Br)cc32)cc1` to `COc1ccc(N2C=C(C#N)S(=O)(=O)c3ccc(C)cc32)c(OC)c1`, the RP-LC retention time falls from 1040 s to 930 s.

First: O=C(Cn1nc2c3cc(-c4ccccc4)nn3ccn2c1=O)Nc1ccc(Br)cc1F
Second: O=C(Nc1ccc(F)cc1F)Nc1c(-c2ccccc2)nc2ccccn12
The RP-LC retention time of the first is higher: 923 s for the first, 660 s for the second.

First: Cc1ccccc1N1CCN(C(=O)c2cn3c(n2)CCCC3)CC1
Second: O=C(c1ccc(-c2cncnc2)nc1)N1CCN(c2ccccc2)CC1
The RP-LC retention time of the first is lower: 668 s for the first, 716 s for the second.

First: O=C(NCCc1c[nH]c2ccccc12)C(=O)c1cn(CC(=O)N2CCOCC2)c2ccccc12
Second: CN1c2ccccc2C(=O)NC12CCN(C(=O)c1ccccc1F)CC2
The RP-LC retention time of the first is higher: 832 s for the first, 712 s for the second.

Going from `Cc1nc(C2CN(S(=O)(=O)c3cccc(C(F)(F)F)c3)CC23CCOCC3)no1` (stereo not drawn) to `COc1ccc(-c2ncc3c(n2)CCN(S(=O)(=O)c2cccc(C(F)(F)F)c2)C3)cc1`, the RP-LC retention time rises from 856 s to 1110 s.

Going from `COc1ccc2c(c1)CCCN2C(N)=Nc1ccc(Cl)cc1` to `CC(NC(=O)c1ccc(N(C)C)cc1)C(=O)N1CCCc2ccccc21` (stereo not drawn), the RP-LC retention time rises from 753 s to 846 s.

First: CCN1CCN(CCCNC(=O)c2noc(C)c2Cn2nc(C)cc2C)CC1
Second: CCCn1ccc2sc(C)c(C(=O)NC3CCN(Cc4ccccc4)CC3)c2c1=O
The RP-LC retention time of the first is lower: 572 s for the first, 625 s for the second.

First: Cc1cc(C)c(S(=O)(=O)N2CCC(C(=O)NCc3csc(-c4ccccc4)n3)CC2)cc1C
Second: O=C1CCCc2cc(S(=O)(=O)N3CCC(C(=O)NCc4ccccc4Cl)CC3)ccc2N1
The RP-LC retention time of the first is higher: 1050 s for the first, 760 s for the second.

Compared with `COc1ccc(C2(c3nc(CCS(=O)(=O)c4ccccc4)no3)CC2)cc1`, `CCOc1ccccc1NC(=O)N(C)CCc1noc(COc2ccccc2)n1` is higher in RP-LC retention time: 959 s for the first, 977 s for the second.

Going from `Cc1cc(NC(C)C)n2c(nc3ccccc32)c1C#N` to `Cc1cc2c(c(C#N)c1C)NC=NC2C` (stereo not drawn), the RP-LC retention time rises from 610 s to 641 s.

Compared with `O=C(Cc1cccs1)N1CCn2c(nnc2-c2ccccc2)C1`, `O[C@@H]1C[C@@H](c2nnc3n2CCN(Cc2ccccc2)C3)N(Cc2cccnc2)C1` is lower in RP-LC retention time: 679 s for the first, 563 s for the second.

First: CCc1nc2nccc(-c3ccc(OC)c(OC)c3)n2n1
Second: COC(=O)c1ccc(NC(=O)Cn2cccc(-c3nc(-c4ccc(OC)c(OC)c4)no3)c2=O)cc1
The RP-LC retention time of the first is lower: 702 s for the first, 1010 s for the second.

Going from `N#Cc1ccc(Cl)cc1NC(=O)c1ccc(N2CCOCC2)nn1` to `CCOc1ccc(C(=O)N2CCC3(CC2)NC(=O)c2cc(Cl)ccc2N3C)cc1`, the RP-LC retention time rises from 843 s to 853 s.

Compared with `CCOc1cc(-c2nc(C3CC(=O)N(c4ccc(C)cc4)C3)no2)cc(OCC)c1OCC` (stereo not drawn), `CCc1cccc(NC(=O)C2CC(=O)N(c3ccc4oc(C)nc4c3)C2)c1` (stereo not drawn) is lower in RP-LC retention time: 1150 s for the first, 785 s for the second.

First: CSc1ncccc1C(=O)Nc1ccc2c(c1)CCC(=O)N2C
Second: CSc1cccc(NC(=O)N2CCC3(CC2)NC(=O)c2ccccc2O3)c1
The RP-LC retention time of the first is lower: 684 s for the first, 793 s for the second.

First: CCOC(=O)c1cc(S(=O)(=O)N2CCCC2C(=O)Nc2ccc(C(C)C)cc2)cn1C (stereo not drawn)
Second: CCOC(=O)c1cc(S(=O)(=O)N2CCCC2C(=O)N(CC)c2ccc(OC)cc2)cn1C (stereo not drawn)
The RP-LC retention time of the first is higher: 1070 s for the first, 892 s for the second.

First: CCCn1c(=O)sc2cc(S(=O)(=O)N3CCC(C(=O)Nc4cccc(CC)c4)CC3)ccc21
Second: COc1cccc(CNC(=O)C2CCCN2S(=O)(=O)c2cc3c(cc2Cl)NC(=O)CO3)c1 (stereo not drawn)
The RP-LC retention time of the first is higher: 969 s for the first, 880 s for the second.

First: Cn1nc(N2CCCC(NS(=O)(=O)c3cccc4cccnc34)C2)ccc1=O (stereo not drawn)
Second: CCCN1C(=O)c2cc(S(=O)(=O)Nc3ccc(C)cc3)ccc2Oc2cccnc21
The RP-LC retention time of the first is lower: 698 s for the first, 1100 s for the second.

First: Cc1nc(-c2ccc(F)cc2)sc1C(=O)N(C)C
Second: O=C(NCCSc1ncc(-c2ccc(F)cc2)[nH]1)c1ccccc1Cl
The RP-LC retention time of the first is higher: 767 s for the first, 604 s for the second.

Compared with `O=C(COc1ccccc1)N1CCc2nc(-c3ccc(Cl)cc3)ncc2C1`, `CC1(C)Cc2cccc(OCC(=O)N3CCN(Cc4nnnn4-c4ccccc4)CC3)c2O1` is lower in RP-LC retention time: 848 s for the first, 811 s for the second.

Going from `CCC1(C(=O)Nc2ccc(C(C)C)cc2)CCCCC(=O)N1` (stereo not drawn) to `CCc1ccc(NC(=O)N2CCc3c(c(-c4nnc(-c5ccc(F)cc5)o4)nn3C)C2)cc1`, the RP-LC retention time rises from 872 s to 965 s.

Compared with `Cc1ccc(C(=O)OCC(=O)c2ccc([N+](=O)[O-])cc2)o1`, `CCc1ccc(NC(=O)Cn2c(=O)n(-c3ccccc3)c(=O)c3c2cc(C)n3C)cc1` is higher in RP-LC retention time: 688 s for the first, 886 s for the second.

Compared with `CC1CN(S(=O)(=O)c2cccc(-c3cn4cc(Cl)ccc4n3)c2)CC(C)O1` (stereo not drawn), `COc1ccc(S(=O)(=O)N2CCc3c(c(-c4nnc(-c5ccccc5)o4)nn3C)C2)cc1Cl` is higher in RP-LC retention time: 873 s for the first, 990 s for the second.

First: O=[n+]1c2c(n([O-])c3ccccc31)-c1cccc3cccc-2c13
Second: O=C1CC(c2cccc(F)c2)c2c(c(C(=O)O)cn2-c2ccc(F)cc2)N1 (stereo not drawn)
The RP-LC retention time of the first is lower: 767 s for the first, 774 s for the second.

Compared with `CS(=O)(=O)N1CCCN(C(=O)Nc2ccccc2)CC1`, `COCCNC(=O)C1CCCN(S(=O)(=O)c2cc(OC)ccc2OC)C1` (stereo not drawn) is higher in RP-LC retention time: 649 s for the first, 687 s for the second.

Compared with `CCOc1cc(C(=O)Nc2ccc(F)cc2F)nc2c(F)cccc12`, `Cc1ccn2cc(-c3ccc(NC(=O)c4cc(Br)ccc4Cl)cc3)nc2n1` is lower in RP-LC retention time: 1350 s for the first, 700 s for the second.

Compared with `CCOc1cccc(CN2C[C@@H]3C(=O)N(CCOC)C(=O)[C@@H]3C2)c1`, `CN(C)C[C@@H]1CN(c2ncccn2)C[C@H]1NC(=O)C1(C)CCOCC1` is lower in RP-LC retention time: 578 s for the first, 532 s for the second.
